According to US20230373989A1, “N-PHENYLAMINOCARBONYL PYRIDINO-, PYRIMIDINO AND BENZO-TROPANES AS MODULATORS OF GPR65” (PATHIOS THERAPEUTICS LIMITED, priority 2020, published 2023):

Biological target: T1, human recombinant GPR65 (Homo sapiens, UniProt Q8IYL9)
T1 construct: host or cells: 1321N1 human astrocytoma cells (1321N1-hrGPR65)
Test: Human GPR65 cAMP HTRF antagonist assay
Assay type: cell-based
Conditions: not given
From the text: In one preferred embodiment, the compound prevents the increase in cytoplasmic cAMP levels expected following GPR65 activation at acidic pH. This prevention of cAMP accumulation in turn prevents downstream signalling through ICER, as described above. The “Human GPR65 cyclic adenosine monophosphate (cAMP) Homogeneous Time Resolved Fluorescence (HTRF) antagonist assay”, or simply “cAMP assay”, as described in the accompanying examples, can be used to measure the potency of GPR65 modulators, which is expressed as the concentration of compound required to reduce the increase in cAMP concentration upon GPR65 activation by 50% (i.e. an IC50).
Human GPR65 Cyclic Adenosine Monophosphate (cAMP) Homogeneous Time Resolved Fluorescence (HTRF) Antagonist Assay Procedure
IC50 data was obtained by the following procedure:
1321N1 human astrocytoma cells stably expressing human recombinant GPR65 (1321N1-hrGPR65 cells, EuroscreenFast) were cultured according to the vendor's instructions.
Compounds were tested for their ability to antagonise GPR65, through measuring the concentration of cytoplasmic cAMP following treatment of the cells at a pH of 7.2 to activate GPR65 signalling and addition of the compound to be tested. The extent to which the expected rise in cAMP concentration upon GPR65 activation was suppressed by the added compound is indicative of its potency. The assay was carried out according to EuroscreenFast assay methodology as follows.
On the day of the assay, test compounds were added to 384-well, low volume, white microtiter plates by acoustic dispensing. KRH buffer (5 mM KCl, 1.25 mM MgSO4, 124 mM NaCl, 25 mM HEPES, 13.3 mM Glucose, 1.25 mM KH2PO4 and 1.45 mM CaCl2) was adjusted to pH 6.5, pH 7.6 and pH 8.4 by adding NaOH. 1321N1-hGPR65 cells were rapidly thawed and diluted in KRH, pH 7.6 prior to centrifugation at 300×g for 5 min and resuspension in assay buffer (KRH, pH 7.6, supplemented with 1 mM 3-isobutyl-1-methylxanthine (IBMX) and 200 μM ethylenediaminetetraacetic acid (EDTA)). Cells were added to assay plates at a density of 2,000 cells per well in a volume of 5 μl. Assay plates were briefly centrifuged at 100×g and then incubated at room temperature for 30 min. Cells were stimulated by the addition of 5 μL KRH, pH 6.5, to achieve an assay pH of 7.2, while control wells received 5 μl KRH, pH 8.4 to achieve an assay pH of 7.9. Assay plates were briefly centrifuged at 100×g and then incubated at room temperature for 30 min.
Accumulation of cAMP was detected by cAMP HTRF kit (Cisbio). d2-labeled cAMP and cryptate-labeled anti-cAMP antibody in Lysis and Detection Buffer (Cisbio) were added to assay plates, and the plates were incubated at room temperature for 1 h. HTRF measurements were performed using a Pherastar FSX instrument. Acceptor and donor emission signals were measured at 665 nm and 620 nm, respectively, and HTRF ratios were calculated as signal665 nm/signal620 nm×104. Data were normalised to high and low control values and fitted with 4-parameter logistic regression to determine hGPR65 IC50 values for the test compounds, which are shown in Table 1.

T1 sequence (Q8IYL9 whole entry): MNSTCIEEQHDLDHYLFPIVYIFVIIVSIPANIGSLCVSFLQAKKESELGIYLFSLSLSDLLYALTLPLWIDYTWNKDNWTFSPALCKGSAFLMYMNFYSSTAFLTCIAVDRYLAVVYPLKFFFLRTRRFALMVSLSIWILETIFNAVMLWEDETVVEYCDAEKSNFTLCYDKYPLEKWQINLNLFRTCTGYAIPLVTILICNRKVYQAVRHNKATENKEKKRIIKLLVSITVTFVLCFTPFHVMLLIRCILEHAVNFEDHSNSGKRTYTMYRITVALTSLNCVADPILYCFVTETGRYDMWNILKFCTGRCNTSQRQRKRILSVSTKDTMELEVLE

Row | Structure (SMILES) | IC50 [nM]
1 | O=C(Nc1ccc(C(F)(F)F)c(Cl)c1)N1C2CCC1c1cnc(F)nc1C2 (racemic) [Compound 45, (±)-N-(3-Chloro-4-(trifluoromethyl)phenyl)-2-fluoro-6,7,8,9-tetrahydro-5H-5,8-epiminocyclohepta[d]pyrimidine-10-carboxamide] | < 500
2 | O=C(Nc1ccc(Cl)c(Cl)c1)N1C2CCC1c1cnc(F)nc1C2 (racemic) [Compound 46, (±)-N-(3,4-Dichlorophenyl)-2-fluoro-6,7,8,9-tetrahydro-5H-5,8-epiminocyclohepta[d]pyrimidine-10-carboxamide] | < 500
3 | O=C(Nc1ccc(Cl)c(Cl)c1)N1C2CCC1c1cncnc1C2 (racemic) [Compound 48, (±)-N-(3,4-dichlorophenyl)-6,7,8,9-tetrahydro-5H-5,8-epiminocyclohepta[d]pyrimidine-10-carboxamide] | < 500
4 | O=C(Nc1ccc(Cl)c(Cl)c1)N1C2CCC1c1cc[n+]([O-])cc1C2 (racemic) [Compound 58, (±)-10-((3,4-Dichlorophenyl)carbamoyl)-6,7,8,9-tetrahydro-5H-5,8-epiminocyclohepta[c]pyridine 2-oxide] | < 500
5 | O=C(Nc1ccc(Cl)c(Cl)c1)N1C2CCC1c1ccc(Cl)cc1C2 (racemic) [Compound 60, (±)-2-Chloro-N-(3,4-dichlorophenyl)-6,7,8,9-tetrahydro-5H-5,8-epiminobenzo[7]annulene-10-carboxamide] | < 500
6 | O=C(Nc1ccc(Cl)c(Cl)c1)N1C2CCC1c1cnc(F)cc1C2 (racemic) [Compound 67, (±)-N-(3,4-Dichlorophenyl)-3-fluoro-6,7,8,9-tetrahydro-5H-6,9-epiminocyclohepta[c]pyridine-10-carboxamide] | 500 to 5000
7 | O=C(Nc1ccc(Cl)c(Cl)c1)N1C2CCC1c1ccc(F)cc1C2 (racemic) [Compound 74, (±)-N-(3,4-Dichlorophenyl)-2-fluoro-6,7,8,9-tetrahydro-5H-5,8-epiminobenzo[7]annulene-10-carboxamide] | < 500

Same assay, conditions: 1321N1-hrGPR65 cells, assay pH 7.2, cAMP HTRF; read-out: hGPR65 IC50 (activity class)

Row | Structure (SMILES) | IC50 [nM]
8 | O=C(Nc1ccc(C(F)(F)F)c(Cl)c1)N1C2CCC1c1c[nH]c(=O)nc1C2=NO (racemic) [Compound 47, (±)-N-(3-Chloro-4-(trifluoromethyl)phenyl)-9-(hydroxyimino)-2-oxo-3,5,6,7,8,9-hexahydro-2H-5,8-epiminocyclohepta[d]pyrimidine-10-carboxamide] | 500 to 5000
9 | O=C(Nc1ccc(Cl)cc1)N1C2CCC1c1cncnc1C2 (racemic) [Compound 49, (±)-N-(4-Chlorophenyl)-6,7,8,9-tetrahydro-5H-5,8-epiminocyclohepta[d]pyrimidine-10-carboxamide] | > 5000
10 | O=C(Nc1cccc(Cl)c1)N1C2CCC1c1cncnc1C2 (racemic) [Compound 50, (±)-N-(3-Chlorophenyl)-6,7,8,9-tetrahydro-5H-5,8-epiminocyclohepta[d]pyrimidine-10-carboxamide] | > 5000
11 | O=C(Nc1cc(Cl)ccc1F)N1C2CCC1c1cncnc1C2 (racemic) [Compound 51, (±)-N-(5-Chloro-2-fluorophenyl)-6,7,8,9-tetrahydro-5H-5,8-epiminocyclohepta[d]pyrimidine-10-carboxamide] | 500 to 5000
12 | O=C(Nc1ccc(C(F)(F)F)c(Cl)c1)N1C2CCC1c1ccccc1C2 (racemic) [Compound 54, (±)-N-(3-Chloro-4-(trifluoromethyl)phenyl)-6,7,8,9-tetrahydro-5H-5,8-epiminobenzo[7]annulene-10-carboxamide] | 500 to 5000
13 | O=C(Nc1ccc(Cl)c(C(F)(F)F)c1)N1C2CCC1c1ccccc1C2 (racemic) [Compound 55, (±)-N-(4-Chloro-3-(trifluoromethyl)phenyl)-6,7,8,9-tetrahydro-5H-5,8-epiminobenzo[7]annulene-10-carboxamide] | 500 to 5000
14 | COc1ccc2c(c1)CC1CCC2N1C(=O)Nc1ccc(Cl)c(Cl)c1 (racemic) [Compound 56, (±)-N-(3,4-Dichlorophenyl)-2-methoxy-6,7,8,9-tetrahydro-5H-5,8-epiminobenzo[7]annulene-10-carboxamide] | 500 to 5000
15 | O=C(Nc1ccc(Cl)c(Cl)c1)N1C2CCC1c1ccc(O)cc1C2 (racemic) [Compound 57, (±)-N-(3,4-Dichlorophenyl)-2-hydroxy-6,7,8,9-tetrahydro-5H-5,8-epiminobenzo[7]annulene-10-carboxamide] | 500 to 5000
16 | O=C(Nc1ccc(Cl)c(Cl)c1)N1C2CCC1c1c[n+]([O-])ccc1C2 (racemic) [Compound 59, (±)-10-((3,4-Dichlorophenyl)carbamoyl)-6,7,8,9-tetrahydro-5H-6,9-epiminocyclohepta[c]pyridine 2-oxide] | > 5000
17 | Nc1nccc2c1C1CCC(C2)N1C(=O)Nc1ccc(Cl)c(Cl)c1 (racemic) [Compound 61, (±)-1-Amino-N-(3,4-dichlorophenyl)-6,7,8,9-tetrahydro-5H-6,9-epiminocyclohepta[c]pyridine-10-carboxamide] | 500 to 5000
18 | Nc1cc2c(cn1)C1CCC(C2)N1C(=O)Nc1ccc(Cl)c(Cl)c1 (racemic) [Compound 62, (±)-3-amino-N-(3,4-dichlorophenyl)-6,7,8,9-tetrahydro-5H-6,9-epiminocyclohepta[c]pyridine-10-carboxamide] | > 5000
19 | Nc1nccc2c1CC1CCC2N1C(=O)Nc1ccc(Cl)c(Cl)c1 (racemic) [Compound 63, (±)-1-amino-N-(3,4-dichlorophenyl)-6,7,8,9-tetrahydro-5H-5,8-epiminocyclohepta[c]pyridine-10-carboxamide] | > 5000
20 | Nc1cc2c(cn1)CC1CCC2N1C(=O)Nc1ccc(Cl)c(Cl)c1 (racemic) [Compound 64, (±)-3-Amino-N-(3,4-dichlorophenyl)-6,7,8,9-tetrahydro-5H-5,8-epiminocyclohepta[c]pyridine-10-carboxamide] | 500 to 5000
21 | CC(C)(C)Nc1nccc2c1CC1CCC2N1C(=O)Nc1ccc(Cl)c(Cl)c1 (racemic) [Compound 65, (±)-1-(tert-Butylamino)-N-(3,4-dichlorophenyl)-6,7,8,9-tetrahydro-5H-5,8-epiminocyclohepta[c]pyridine-10-carboxamide] | 500 to 5000
22 | CC(C)(C)Nc1cc2c(cn1)CC1CCC2N1C(=O)Nc1ccc(Cl)c(Cl)c1 (racemic) [Compound 66, (±)-3-(tert-Butylamino)-N-(3,4-dichlorophenyl)-6,7,8,9-tetrahydro-5H-5,8-epiminocyclohepta[c]pyridine-10-carboxamide] | 500 to 5000
23 | O=C(Nc1ccc(Cl)c(Cl)c1)N1C2CCC1c1c(ccnc1F)C2 (racemic) [Compound 68, (±)-N-(3,4-Dichlorophenyl)-1-fluoro-6,7,8,9-tetrahydro-5H-6,9-epiminocyclohepta[c]pyridine-10-carboxamide] | 500 to 5000
24 | O=C(Nc1ccc(Cl)c(Cl)c1)N1C2CCC1c1cc(F)ncc1C2 (racemic) [Compound 69, (±)-N-(3,4-Dichlorophenyl)-3-fluoro-6,7,8,9-tetrahydro-5H-5,8-epiminocyclohepta[c]pyridine-10-carboxamide] | 500 to 5000
25 | O=C(Nc1ccc(C(F)(F)F)c(Cl)c1)N1C2CCC1c1ccc(Cl)cc1C2 (racemic) [Compound 71, (±)-2-Chloro-N-(3-chloro-4-(trifluoromethyl)phenyl)-6,7,8,9-tetrahydro-5H-5,8-epiminobenzo[7]annulene-10-carboxamide] | 500 to 5000
26 | N#Cc1ccc2c(c1)CC1CCC2N1C(=O)Nc1ccc(Cl)c(Cl)c1 (racemic) [Compound 72, (±)-2-Cyano-N-(3,4-dichlorophenyl)-6,7,8,9-tetrahydro-5H-5,8-epiminobenzo[7]annulene-10-carboxamide] | 500 to 5000
27 | Nc1ccc2c(c1)CC1CCC2N1C(=O)Nc1ccc(Cl)c(Cl)c1 (racemic) [Compound 73, (±)-2-Amino-N-(3,4-dichlorophenyl)-6,7,8,9-tetrahydro-5H-5,8-epiminobenzo[7]annulene-10-carboxamide] | > 5000
